Experimental data taken from patent publication US9884063B2, “Amido-substituted azole compounds” (Bayer Pharma Aktiengesellschaft, priority 2014, dated 2018).

Molecular target: T1, TNKS1 (Homo sapiens, UniProt O95271)
T1 sequence (O95271 1-1327): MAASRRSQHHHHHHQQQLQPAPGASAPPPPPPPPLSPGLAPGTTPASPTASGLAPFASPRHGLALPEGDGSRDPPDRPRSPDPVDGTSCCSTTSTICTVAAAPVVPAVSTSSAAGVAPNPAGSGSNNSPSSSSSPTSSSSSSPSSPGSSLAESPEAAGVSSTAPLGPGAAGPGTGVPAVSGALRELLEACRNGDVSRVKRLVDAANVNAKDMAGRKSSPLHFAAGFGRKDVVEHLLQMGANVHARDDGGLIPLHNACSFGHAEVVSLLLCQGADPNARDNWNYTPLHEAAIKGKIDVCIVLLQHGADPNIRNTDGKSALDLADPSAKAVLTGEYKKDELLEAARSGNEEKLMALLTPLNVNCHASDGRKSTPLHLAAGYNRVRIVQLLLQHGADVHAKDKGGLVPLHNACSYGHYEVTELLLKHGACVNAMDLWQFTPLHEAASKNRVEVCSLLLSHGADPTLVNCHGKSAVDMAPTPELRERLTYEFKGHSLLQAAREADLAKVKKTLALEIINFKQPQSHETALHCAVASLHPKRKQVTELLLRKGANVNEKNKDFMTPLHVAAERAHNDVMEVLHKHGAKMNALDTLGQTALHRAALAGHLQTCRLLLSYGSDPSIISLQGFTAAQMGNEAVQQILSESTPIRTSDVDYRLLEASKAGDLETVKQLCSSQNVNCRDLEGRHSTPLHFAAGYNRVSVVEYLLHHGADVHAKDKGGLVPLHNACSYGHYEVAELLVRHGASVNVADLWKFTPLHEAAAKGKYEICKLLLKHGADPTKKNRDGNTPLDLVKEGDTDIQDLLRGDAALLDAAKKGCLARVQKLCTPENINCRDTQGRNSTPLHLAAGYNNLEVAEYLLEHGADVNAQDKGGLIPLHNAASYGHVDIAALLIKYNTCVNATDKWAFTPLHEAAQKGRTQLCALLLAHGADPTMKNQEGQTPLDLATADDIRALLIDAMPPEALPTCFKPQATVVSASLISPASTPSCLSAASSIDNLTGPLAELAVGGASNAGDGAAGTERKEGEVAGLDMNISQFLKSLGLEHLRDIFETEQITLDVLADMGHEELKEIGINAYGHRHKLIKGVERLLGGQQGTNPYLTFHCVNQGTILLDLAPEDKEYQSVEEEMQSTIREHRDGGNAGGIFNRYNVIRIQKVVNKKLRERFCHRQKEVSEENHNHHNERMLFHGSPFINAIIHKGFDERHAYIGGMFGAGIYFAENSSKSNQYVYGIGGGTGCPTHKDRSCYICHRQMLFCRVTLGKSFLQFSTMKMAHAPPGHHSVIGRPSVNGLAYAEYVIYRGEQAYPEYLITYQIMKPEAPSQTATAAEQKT
Experiment: Modified TNKS1 Assay 3 (BPS kit #80573, biotin-NAD+, 96 well)
Assay type: biochemical
Conditions: human TNKS1, BPS kit #80573, 96 well
In short: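 Chemiluminescent assay of TNKS1-catalysed ribosylation of a protein substrate with biotin-labelled NAD+, detected via streptavidin-HRP; run per kit protocol. Inhibition lowers the signal, and IC50 is the compound concentration halving the normalised readout.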

O=C(Nc1ccc(NC(=O)c2[nH]cnc2C(=O)NCCN2CCCCC2)cn1)c1ccc(F)cc1Cl [Example 110, N^5-{6-[(2-chloro-4-fluorobenzoyl)amino]pyridin-3-yl}-N^4-[2-(piperidin-1-yl)ethyl]-1H-imidazole-4,5-dicarboxamide]
IC50: 0.04 µM
